Laboratory results: US20080051464A1, “Protein phosphatase inhibitors” (The Cleveland Clinic Foundation, priority 2006, published 2008)

Key:
[1] = molecular target: T1, recombinant SHP-1 (Homo sapiens, UniProt P29350); test: rapid in vitro SHP-1 PTPase assay (DIFMUP substrate); assay type: biochemical; conditions: 1 μg/well; FIG. 12A
T1 construct: Recombinant protein of SHP-1 PTPase catalytic domain was described
T1 sequence (P29350 244-515 limits assumed): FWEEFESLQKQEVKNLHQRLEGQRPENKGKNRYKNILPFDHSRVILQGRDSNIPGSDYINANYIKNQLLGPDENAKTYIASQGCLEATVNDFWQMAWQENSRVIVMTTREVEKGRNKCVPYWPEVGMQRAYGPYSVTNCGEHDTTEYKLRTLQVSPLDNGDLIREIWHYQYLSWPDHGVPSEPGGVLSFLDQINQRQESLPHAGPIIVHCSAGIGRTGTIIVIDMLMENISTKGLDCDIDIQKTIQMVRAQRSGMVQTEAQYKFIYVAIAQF
Method: Recombinant protein of SHP-1 PTPase catalytic domain was described and stored in Tris buffer (25 mM Tris, pH7.5, 1 mM EDTA, 2 μM 2-ME, 25% glycerol) at −80° C. Fluorescence substrate DIFMUP (6,8-difluoro-4 methylumbelliferyl phosphate) was purchased (Molecular Probes). SSG was reported previously (21-23) and stored at 4° C. in darkness prior to use. Human and mouse IFNγ ELISPOT Kit (R & D System), CD4^+ Cell Intracellular IFNγ Detection Kit (BD Bioscience) and CD8^+ Cell Intracellular IFNγ Detection Kit (BD Bioscience) were purchased from commercial sources. Human Jurkat T cell line (26) and murine B16 melanoma cell line (ATCC) were maintained in […] culture medium supplemented with 10% fetal calf serum (FCS). Antibodies against pLck-pY394 (Cell Signaling), pLck-pY505 (Cell Signaling), pZap70 (pY319, BD Biosciences), pSlp76 (pY128, BD Biosciences) and pLat (pY226, BD Biosciences) were purchased from commercial sources.
(§1) A rapid SHP-1 PTPase assay was developed for screening the compounds in a commercial library of 34,000 drug-like small chemicals (Chembridge, Mass.). Briefly, compounds of the library (1 μg/well in 0.21 DMSO) were placed in 96-well plates (Falcon, 353072) and mixed with recombinant SHP-1 protein (0.1 μg/well) in 90 μl of HEPES buffer (50 mM HEPS, pH 7.5, 150 mM NaCl, 1 mM EDTA, 0.2 mM DTT and 0.1 mg/ml BSA). The plates were incubated at room temperature for 10 minutes prior to the addition of fluorescence substrate DIFMUP (40 μM stock in HEPES buffer, 10 μl/well) to initiate PTPase reaction. Upon completion of PTPase reaction at room temperature for 1 hr in darkness, fluorescence signal of individual wells were recorded using a Vector^2 Multilabel Counter (Vector, CA). They were compared to that of control SHP-1 PTPase reaction (˜10,000 units of fluorescence signal) in the absence of any compound (100%) for calculating relative SHP-1 inhibition induced by the compounds after subtracting the background signal (˜500 units of fluorescence signal) of the substrate.
as §1, with “To evaluate their” for “A rapid”, “inhibitory activity,” for “PTPase assay was developed for screening”, “analogs” for “compounds in a commercial library of 34,000 drug-like small chemicals (Chembridge, Mass.). Briefly, compounds of the library”, “0.2 μl” for “0.21”, “aliquot individually to” for “placed in”, “(500” for “(˜500”

[2] = test system: IFNγ+ cells in mouse splenocytes; test: induction of IFNγ+ cells in mouse splenocytes in vitro (ELISPOT); assay type: cell-based; conditions: for increase of IFNγ+ cells in splenocytes: 16 hrs (FIG. 5A)
Method: The splenocytes were cultured in RPMI 1640 medium supplemented with 10% FCS in the absence or presence of designated agents for 16 hrs in flat-bottom 96-well plates coated with a monoclonal antibody specific for mouse IFNγ (mouse IFNγ ELISPOT Kit, R & D System). The plates were then processed for in situ detection of IFNγ+ cells by ELISA following the manufacturer's procedure. Scanning and counting of IFNγ+ cells in the plates were accomplished using an automatic ELISPOT reader with Immunospot2 software (Cellular Technology Ltd). Mouse splenocytes were also untreated or treated with agents for 16 hrs in culture dishes and then stained with appropriate isotype control antibodies or FICT-labeled anti-CD3 monoclonal antibody (BD) plus PE-labeled monoclonal antibody (BD) for intracellular IFNγ following established procedures. The stained samples were washed 3 times, re-suspended in 200 μl of 1% para-formaldehyde solution and analyzed (20,000 cells/sample) using a BD FACS Caliburs cytometer and WinList software.
The splenocytes were cultured in RPMI 1640 medium supplemented with 10% FCS in the absence or presence of designated agents for 16 hrs in flat-bottom 96-well plates coated with a monoclonal antibody specific for mouse IFNγ (mouse IFNγ ELISPOT Kit, R & D System). The plates were then processed for in situ detection of IFNγ+ cells by ELISA following the manufacturer's procedure. Scanning and counting of IFNγ+ cells in the plates were accomplished using an automatic ELISPOT reader with Immunospot2 software (Cellular Technology Ltd).

In the case of `O=C1C=CC(=O)C(c2cc(Cl)ccc2Cl)=C1` [L5], the “inhibition of phosphatase activity of recombinant SHP-1” value [1] is reported as “completely or almost completely inhibited”, the “induction of IFNγ+ cells” value ([2]; 0.001 μg/ml (FIG. 11)) is reported as “inactive” and the “increase of IFNγ+ cells in splenocytes” value ([2]; 1 μg/ml) is reported as roughly 14 fold. The “increase of IFNγ+ cells in splenocytes” value ([2]; 3 μg/ml) was roughly 26 fold, the “increase of IFNγ+ cells in splenocytes” value ([2]; 10 μg/ml) was roughly 17 fold and the “increase of IFNγ+ cells in splenocytes” value ([2]; 30 μg/ml) was roughly 10 fold. The “induction of IFNγ+ cells” value ([2]; 0.01 to 1 μg/ml (FIG. 11A)) was “effective”, the “minimal effective dose for IFNγ+ cell induction” value ([2]; FIG. 11) was 10 ng/mL and the “induction of IFNγ+ cells” value ([2]; higher doses (FIG. 16B)) was “induced significant IFNγ+ cells”. For the same compound, the “induction of IFNγ+ cells” value ([2]; low doses (0.01 to 1 μg/ml), splenocytes of the same mouse (FIG. 16B)) was 3-4 fold and the “effectiveness compared with SSG in inducing IFNγ+ cells” value ([2]; maximal induction at a comparable dose, mouse splenocytes) was roughly 58 fold.
